Experimental data from patent publication US20060160095A1, “Survivin” (EiRx Therapeutics Limited, priority 2002, published 2006).

Experiments:
[1] = test system: Primary human neutrophils; assay: MTT survival assay of neutrophils cultured with GM-CSF, with or without gliotoxin; assay type: cell-based; settings: various amounts of GM-CSF, 18 h culture
Procedure: Primary human neutrophils are isolated and purified from peripheral blood of normal healthy individuals. Neutrophils are resuspended in serum containing culture medium together with various amounts of GM-CSF at a density of 2×10^6/ml, with 100 μl plated into a 96 well plate and cultured for 18 h at 37° C. After this time 10 μl of MTT (5 mg/ml) is added to the cultures and incubated for a further 4 h at 37° C. before solubilisation of the purple coloured formazan with acidic isopropanol. Optical densities are read at 570 nm using a plate reader.
Primary human neutrophils are isolated and purified from peripheral blood of normal healthy individuals. Neutrophils are resuspended in serum containing culture medium containing 5 U/ml of GM-CSF at a concentration of 2×10^6/ml. […] After the indicated time, 10 μl of MTT (5 mg/ml) are added to the cultures and incubated for a further 4 h at 37° C. before solubilisation of the purple coloured formazan with acidic isopropanol. Optical densities are read at 570 nm using a plate reader.

[2] = test system: Survivin mRNA; assay: Real-time PCR quantification of survivin mRNA in neutrophils; assay type: cell-based, human; settings: cytokine added in vitro; A549 standard = 100%
Procedure: (§1) Neutrophils are cultured at 1×10^6 per ml in complete culture medium. GM-CSF (50 ng/ml; kind gift of T. Hartung, University of Konstanz, Konstanz, Germany) or G-CSF (25 ng/ml; PeproTech, BioConcept, Allschwil, Switzerland) are added. The duration of GM-CSF or G-CSF stimulation is indicated in each experiment.
Neutrophils (1×10^7) are washed with PBS and the RNA is isolated according to the RNeasy protocol (Qiagen AG, Basel, Switzerland), which includes DNase digestion. RNA is reverse transcribed with the first strand cDNA synthesis kit (Amersham Pharmacia Biotech) by using random hexanucleotides according to the manufacturer's instructions. Real-time monitoring of PCR amplification of survivin cDNA is performed with a 1/100 dilution of neutrophil cDNA as previously described (Olie et al. (2000) Cancer Research 60, 2805-2809). Relative quantification of survivin expression is performed as described (Olie et al. (2000) Cancer Research 60, 2805-2809) utilizing rRNA as an internal standard.
(§2) The 20-mer first generation antisense oligonucleotide 4003 targeting the survivin mRNA has been described above. The second generation 2′-O-methoxy-ethoxy (2′-MOE) gapmer version of 4003 (as) and its 3-base mismatch sequence control (ms) are synthesized using an Applied Biosystems 394B automated DNA synthesizer as described (De Mesaeker et al. (1995) Acc. Chem. Res. 28, 366-374). Sequences are as follows: antisense survivin, cscscsasgsCsCsTsTsCsCsAsGsCsTscscststsg; mismatch survivin, cscstsasgsCsCsTsTsCsCsAsGsGsTscscstsasg. Small letters refer to 2′-O-(2-methoxy)-ethyl-modified nucleotides, capital letters to DNA, and “s” refers to phosphorothioate linkages. Cells isolated and cultured as described above are treated with survivin antisense oligonucleotides (as) or survivin mismatch control oligonucleotides (ms) at the indicated concentrations. In the experiments in which GM-CSF (50 ng/ml; kind gift of T. Hartung, University of Konstanz, Konstanz, Germany) or G-CSF (25 ng/ml; PeproTech, BioConcept, Allschwil, Switzerland) are added, the oligonucleotides are given 2 h before addition of cytokines.

[3] = test system: caspase-3; assay: Caspase-3 immunoblotting in neutrophils; assay type: cell-based, human; settings: neutrophils cultured with GM-CSF or G-CSF for 10 h
Procedure: Immunoblotting is carried out as described above using supernatants of cell lysates. Caspase-3 is detected using a polyclonal anti-caspase-3 antibody (1/1000; Becton Dickinson Pharmingen, Heidelberg, Germany))
Neutrophils (2.5×10^6) are cultured in the presence or absence of GM-CSF (50 ng/ml), G-CSF (25 ng/ml), 2-MOE modified antisense or mismatch survivin oligonucleotides at the indicated concentrations for 10 h, washed with cold PBS and subsequently lysed in 50 μl cell lysis buffer (50 mM HEPES, pH 7.4/0.1% Chaps/5 mM DTT/0.1 mM EDTA) using a Teflon glass homogenizer (VWR International, Ismaning, Germany) on ice for 10 min. After a 10-min centrifugation step at 10,000×g at 4° C., an aliquot of the supernatant is saved for caspase-3 immunoblotting and caspase 3-like activity is measured in 10 μl supernatants as enzymatic-conversion of the colorimetric substrate Ac-DEVD-pNA at 405 nm according to the manufacturer's instructions (QuantiZyme caspase 3 cellular activity assay kit, Biomol, Plymouth Meeting, Pa., USA).

[4] = test system: Neutrophils; assay: Measurement of apoptosis by DNA fragmentation (propidium iodide flow cytometry); assay type: cell-based, human; settings: neutrophils cultured overnight in the presence of GM-CSF
Procedure: Neutrophils are isolated from the blood as described in Example 1 and resuspended at a concentration of 2×10^6/ml. Five hundred microlitres are pipetted into wells of a 24 well plate and incubated in the presence or absence of survival factors.
After this incubation, the neutrophils are carefully resuspended by gentle agitation and the total contents of the well are placed into an eppendorf and centrifuged @2800 rpm for 2 min @ RT in a minifuge. The cell pellet is carefully resuspended in 300 μl of ice cold hypotonic fluorochrome solution (50 μg/ml Propidium Iodide, 0.1% Sodium Citrate and 0.1% Triton X-100) and placed in a fridge for 24 h @ 4° C.
Prepared samples are analysed with a FacsCalibre flow cytometer (Becton Dickinson) using double discrimination to ensure single cell suspension with Log Forward and Side Scatter Parameter acquisition.

[5] = test system: survivin; assay: Immunoblotting of survivin protein in neutrophils; assay type: cell-based, human; settings: cultured for 12 h in the presence of cytokine
Procedure: as §1
Neutrophils (5×10^6) are washed with PBS, lysed with RIPA-buffer (0.5% sodium deoxycholate, 1% Nonidet P-40, 0.1% SDS in PBS) supplemented with a protease inhibitor-cocktail (Sigma) with frequent vortexing on ice for 40 min, including two freeze/thaw cycles using a methanol/dry ice bath. After a 10-min centrifugation to remove insoluble particles, equal amounts of the cell lysates are loaded on NuPage-Gels (Invitrogen Corp., Groningen, Netherlands). Separated proteins are electrotransferred onto polyvinylidene difluoride (PVDF) membranes (Immobilion-P, Millipore, Bedford, Mass.). The filters are incubated overnight with a polyclonal anti-survivin antibody (1/1000; R&D Systems, Abingdon, UK) at 4° C. in TBS/0.1% Tween-20/3% non-fat dry milk. Purified full-length recombinant human survivin (2 μl) is provided by R&D Systems as positive control for anti-survivin immunoblotting. For loading controls, stripped filters are incubated with a monoclonal anti-β-actin antibody (1/10,000; Sigma). Filters are washed in TBS/0.1% Tween-20 for 30 min and incubated with the appropriate HRP-conjugated secondary antibody (Amersham Pharmacia Biotech, Dübendorf, Switzerland) in TBS/0.1% Tween-20/5% non-fat dry milk for 1 h. Filters are developed by an ECL-technique (ECL-Kit, Amersham Pharmacia Biotech) according to the manufacturer's instructions.
as §2

## Granulocyte macrophage colony-stimulating factor [GM-CSF]
[1]
  neutrophil survival (MTT, optical density at 570 nm): direct correlation between survival and concentrations of GM-CSF
[2]
  survivin mRNA in normal control neutrophils after cytokine addition: increase in survivin mRNA
[3]
  caspase-3 proform and 17-kDa fragment levels with cytokine: maintain greater amounts of the caspase-3 proform
[4]
  apoptosis by DNA fragmentation (G0/G1 and sub-G1 peaks): few cells in the sub-G1 peak
[5]
  Levels of survivin (immunoblot) in normal control neutrophils: increased
